Values quoted from earlier work, collected in patent publication US12274730B2, “Flavonoid compositions and methods of use” (Berkley, LLC, priority 2015, dated 2025).

Conditions: general statement, no test described

Half-life: 3.5 to 11 h
Compound: O=c1c(O)c(-c2ccc(O)c(O)c2)oc2cc(O)cc(O)c12 [Quercetin, 2-(3,4-dihydroxyphenyl)-3,5,7-trihydroxy-4H-chromen-4-one]
